In the assay the target is T1, human Edg-1 receptor (Homo sapiens, UniProt P21453).
T1 construct: FLAG (N); expressed in transfected cells; membrane preparation
Kind of assay: GTP-γ-S assay using human Edg-1 receptors (SPA, CHO Flp-In cell membrane preparation). In kind it is biochemical. As to conditions: test compound at 10 μM; high control 10 μM S1P regarded as 100% activation; background-corrected; triplicate; read-out: % Activation (Edg-1 receptor activation in percent of the activation by 10 μM S1P). The gist of the method:
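Membranes from CHO Flp-In cells stably overexpressing N-terminally FLAG-tagged human Edg-1 were used in a scintillation-proximity GTP-γ-S binding assay to measure receptor activation by compounds.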

T1 sequence (P21453 whole entry): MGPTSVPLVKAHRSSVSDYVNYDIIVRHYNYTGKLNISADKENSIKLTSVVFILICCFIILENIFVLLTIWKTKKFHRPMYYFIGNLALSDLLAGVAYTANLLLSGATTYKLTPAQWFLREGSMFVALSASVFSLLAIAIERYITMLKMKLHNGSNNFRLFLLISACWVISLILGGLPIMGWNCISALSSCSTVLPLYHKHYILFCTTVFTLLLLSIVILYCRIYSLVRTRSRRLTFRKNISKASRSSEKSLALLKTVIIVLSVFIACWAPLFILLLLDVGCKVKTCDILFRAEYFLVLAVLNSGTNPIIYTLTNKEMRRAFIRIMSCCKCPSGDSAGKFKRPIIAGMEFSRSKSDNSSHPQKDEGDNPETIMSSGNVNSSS

Regarding `O=S1(=O)CCC(Sc2nc(OCC3CC3)c3nc(-c4cc(F)ccc4Cl)oc3n2)C1` (stereo not drawn) [Example 13, 2-(2-chloro-5-fluoro-phenyl)-7-cyclopropylmethoxy-5-(1,1-dioxo-tetrahydro-1lambda6-thiophen-3-ylsulfanyl)-oxazolo[5,4-d]pyrimidine], the activation at 10 µM was 104%. Then `CCCOc1nc(Oc2cc(C(F)(F)F)ccc2Cl)nc2oc(-c3cccc(C)c3)nc12` [Example 143, 5-(2-chloro-5-trifluoromethyl-phenoxy)-7-propoxy-2-(3-methyl-phenyl)-oxazolo[5,4-d]pyrimidine], with 52%.

Consider `CCCOc1nc(Oc2ccc(C)c(F)c2)nc2oc(-c3cccc(C)c3)nc12` [Example 54, 5-(3-fluoro-4-methyl-phenoxy)-7-propoxy-2-(3-methyl-phenyl)-oxazolo[5,4-d]pyrimidine], for which the activation at 10 µM was 105%. Then `CCOc1nc(Oc2cccc(S(=O)(=O)N(C)C)c2)nc2oc(-c3cccc(C)c3)nc12` [Example 17, 3-(7-ethoxy-2-(3-methyl-phenyl)-oxazolo[5,4-d]pyrimidin-5-yloxy)-N,N-dimethyl-benzenesulfonamide], with 55%; and `CCCOc1nc(Oc2ccc(C#N)c(F)c2)nc2oc(-c3cccc(C)c3)nc12` [Example 134, 2-fluoro-4-(7-propoxy-2-(3-methyl-phenyl)-oxazolo[5,4-d]pyrimidin-5-yloxy)-benzonitrile], with 104%; and `CCCOc1nc(OC2CCC(C)CC2)nc2oc(-c3cc(F)ccc3Cl)nc12` (stereo not drawn) [Example 85, 2-(2-chloro-5-fluoro-phenyl)-5-(4-methyl-cyclohexyloxy)-7-propoxy-oxazolo[5,4-d]pyrimidine], with 67%.

Consider `CCCOc1nc(Sc2nccs2)nc2oc(-c3cccc(C)c3)nc12` [Example 4], for which the activation at 10 µM is 93%. On to `CCCOc1nc(Oc2cncc(F)c2)nc2oc(-c3cc(F)ccc3Cl)nc12` [Example 72, 2-(2-chloro-5-fluoro-phenyl)-5-(5-fluoro-pyridin-3-yloxy)-7-propoxy-oxazolo[5,4-d]pyrimidine], for which the activation at 10 µM was 95%.

For `Fc1ccc(Cl)c(-c2nc3c(OCC4CC4)nc(Oc4ccccc4F)nc3o2)c1` [Example 104, 2-(2-chloro-5-fluoro-phenyl)-7-cyclopropylmethoxy-5-(2-fluoro-phenoxy)-oxazolo[5,4-d]pyrimidine], the activation at 10 µM turned out to be 117%. Take `CCCOc1nc(OC2CCOCC2)nc2oc(-c3cc(F)ccc3Cl)nc12` [Example 117, 2-(2-chloro-5-fluoro-phenyl)-7-propoxy-5-(tetrahydro-pyran-4-yloxy)-oxazolo[5,4-d]pyrimidine]: the activation at 10 µM was 63%. The result for `CCCOc1nc(Oc2cc(F)ccc2C)nc2oc(-c3ccc(Cl)c(Cl)c3)nc12` [Example 157, 2-(3,4-dichloro-phenyl)-5-(5-fluoro-2-methyl-phenoxy)-7-propoxy-oxazolo[5,4-d]pyrimidine] reads 92%. As to `CCCOc1nc(Oc2ccc(C)c(F)c2)nc2oc(-c3cccc(F)c3)nc12` [Example 81, 5-(3-fluoro-4-methyl-phenoxy)-2-(3-fluoro-phenyl)-7-propoxy-oxazolo[5,4-d]pyrimidine], the activation at 10 µM is 89%. The result for `CCCOc1nc(Oc2ccc(F)cc2OC)nc2oc(-c3cccc(C)c3)nc12` [Example 99, 5-(4-fluoro-2-methoxy-phenoxy)-7-propoxy-2-(3-methyl-phenyl)-oxazolo[5,4-d]pyrimidine] reads 91%; that for `CCCOc1nc(Oc2cccc(Cl)c2)nc2oc(-c3cccc(C)c3)nc12` [Example 121, 5-(3-chloro-phenoxy)-7-propoxy-2-(3-methyl-phenyl)-oxazolo[5,4-d]pyrimidine], 113%.

As for `Clc1ccc(-c2nc3c(OCC4CC4)nc(Oc4cccnc4)nc3o2)cc1Cl` [Example 106, 7-cyclopropylmethoxy-2-(3,4-dichloro-phenyl)-5-(pyridin-3-yloxy)-oxazolo[5,4-d]pyrimidine], the activation at 10 µM is 117%.

Take `CCCOc1nc(Sc2ccccc2)nc2oc(-c3ccc(Cl)c(Cl)c3)nc12` [Example 156, 2-(3,4-dichloro-phenyl)-5-phenylsulfanyl-7-propoxy-oxazolo[5,4-d]pyrimidine]: the activation at 10 µM was 40%. The result for `CCCOc1nc(Oc2ccccc2C#N)nc2oc(-c3cccc(C)c3)nc12` [Example 128, 2-(7-propoxy-2-(3-methyl-phenyl)-oxazolo[5,4-d]pyrimidin-5-yloxy)-benzonitrile] reads 105%; that for `CCCOc1nc(Oc2cccc3c2OC(C)(C)C3)nc2oc(-c3cc(F)ccc3Cl)nc12` [Example 84, 2-(2-chloro-5-fluoro-phenyl)-5-(2,2-dimethyl-2,3-dihydro-benzofuran-7-yloxy)-7-propoxy-oxazolo[5,4-d]pyrimidine], 60%; that for `CCCOc1nc(Oc2ccccc2C(C)(C)C)nc2oc(-c3cccc(C)c3)nc12` [Example 96, 5-(2-tert-butyl-phenoxy)-7-propoxy-2-(3-methyl-phenyl)-oxazolo[5,4-d]pyrimidine], 67%.

Consider `CCOc1nc(OCC2COC(C)(C)O2)nc2oc(-c3cccc(C)c3)nc12` (stereo not drawn) [Example 37, 5-(2,2-dimethyl-[1,3]dioxolan-4-ylmethoxy)-7-ethoxy-2-(3-methyl-phenyl)-oxazolo[5,4-d]pyrimidine], for which the activation at 10 µM was determined as 86%. Then `CCCOc1nc(Oc2ccccn2)nc2oc(-c3cccc(C)c3)nc12` [Example 76, 7-propoxy-5-(pyridin-2-yloxy)-2-(3-methyl-phenyl)-oxazolo[5,4-d]pyrimidine], with 81%.

As for `CCCOc1nc(Oc2ccc(F)c(C)c2)nc2oc(-c3cccc(C)c3)nc12` [Example 130, 5-(4-fluoro-3-methyl-phenoxy)-7-propoxy-2-(3-methyl-phenyl)-oxazolo[5,4-d]pyrimidine], the activation at 10 µM was found to be 107%.

Take `CCCOc1nc(NC2CCC(F)(F)CC2)nc2oc(-c3cc(F)ccc3Cl)nc12` [Example 64, [2-(2-chloro-5-fluoro-phenyl)-7-propoxy-oxazolo[5,4-d]pyrimidin-5-yl]-(4,4-difluoro-cyclohexyl)-amine]: the activation at 10 µM is 109%. Then `CCCOc1nc(Oc2cccc(S(N)(=O)=O)c2)nc2oc(-c3cccc(C)c3)nc12` [Example 20, 3-(7-propoxy-2-(3-methyl-phenyl)-oxazolo[5,4-d]pyrimidin-5-yloxy)-benzenesulfonamide], with 83%. Then `CCCOc1nc(Oc2cc(F)ccc2F)nc2oc(-c3cccc(C)c3)nc12` [Example 94, 5-(2,5-difluoro-phenoxy)-7-propoxy-2-(3-methyl-phenyl)-oxazolo[5,4-d]pyrimidine], with 122%; and `CCCOc1nc(Oc2ccc(OC)c(OC)c2)nc2oc(-c3cccc(C)c3)nc12` [Example 136, 5-(3,4-dimethoxy-phenoxy)-7-propoxy-2-(3-methyl-phenyl)-oxazolo[5,4-d]pyrimidine], with 91%. For `CCCOc1nc(Oc2cc(C)ccc2Cl)nc2oc(-c3cccc(C)c3)nc12` [Example 137, 5-(2-chloro-5-methyl-phenoxy)-7-propoxy-2-(3-methyl-phenyl)-oxazolo[5,4-d]pyrimidine], the activation at 10 µM came out at 89%.
